Data set [1] relates to AH60C cells. Put plainly: Number of tumor nodules on the liver surface in the AH60C hepatic metastasis model in rats. Type of data set: in vivo, Male Donryu rats; AH60C cells derived from rat hepatoma. The following applies: 5 mg/kg i.v. an hour before surgical invasion (laparothoractomy); 5×10^5 AH60C cells via portal vein; 3 weeks later; Group C (not treated) 27.2±30.0; p<0.01 (Mann-Whitney U). As for the experimental part: (§1) Using a model of hepatic metastasis of tumor, an experiment was conducted to determine a correlation of hepatic metastasis of tumor with a level of liver lipid peroxide (LPO). In addition, an experiment was effected on the Present Compound in terms of its suppressory effect of liver lipid peroxide (LPO) and suppressory effect on hepatic metastasis of tumor.
(§2) Male Donryu rats (ca. 10-weeks aged) were employed as an experimental animal, while AH60C cells (derived from rat hepatoma) were used as a tumor cell. The rats were divided into three groups, namely a laparothoractomy group (Group LT) undergoing intratracheal intubation, followed by thoraco-laparotomy for one hour, a laparotomy group (Group L) undergoing only laparotomy for one hour and a control group (Group C) undergoing laparotomy, followed by immediate closure of the abdomen. The rats were subjected to laparotomy under anesthesia with ether and Ketalar and given 5×10^5 of AH60C cells through the portal vein to inflict surgical invasion, followed by laparotomy three weeks later to determine the number of tumor nodules on the liver surface. In addition to this, the serum samples were drawn, while the liver and lung tissues were isolated, on Disease Days 1. 2 and 3 to determine their respective levels of lipid peroxide by the TBA method. […]

In data set [2] the test system is liver lipid peroxide (LPO). Description: Level of liver lipid peroxide (LPO, TBA method) after surgical invasion (laparothoractomy) in rats. Type of data set: in vivo, Male Donryu rats. The conditions noted are these: 5 mg/kg i.v. an hour before surgical invasion (laparothoractomy); 24 hours later; elevation significantly suppressed, p<0.05 (Mann-Whitney U). As for the experimental part:
as §1, §2

A short description of data set [3]: Acute toxicity (LD50) in rats. The following applies: rat, in vivo.

For orientation: LD50 means the dose expected to kill half of the subjects tested. Read a low LD50 as a more toxic substance.

Structures can show the parent of a compound that is named as a salt.

On to `Cc1c(C)c2c(c(C)c1OP(=O)(O)OC1=C(O)[C@@H]([C@@H](O)CO)OC1=O)CCC(C)(CCCC(C)CCCC(C)CCCC(C)C)O2` (mixture of isomers) [EPC-K, potassium salt of a phosphoric acid diester of L-ascorbic acid and DL-α-tocopherol], for which, in data set [1], the “number of tumor nodules on the liver surface” value came out at 8.9±12.7. The “level of liver lipid peroxide (LPO)” value in data set [2] is 18.9 ± 17.9 nmol/g. For the same compound, the LD50 was ≥ 100 mg/kg in data set [3] (iv) and 5000 mg/kg in data set [3] (po).

The record behind these values is patent US5552389A, “Suppressory compositions against hepatic metastases of tumors” (Senju Pharmaceutical Co., Ltd., priority 1994, dated 1996).
